In the supplement of paper PMC3974653:
Structures can show the parent of a compound that is named as a salt.

system: MTT (mouse pheochromocytoma); experiment: IC50 of cell viability (ATP content); conditions: (24 or 48 h)
Procedure, shortened: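 Library compounds in DMSO (23 nl by pintool, 8 concentrations, final 0.5 nM to 46 µM) were applied for 24 or 48 hrs to MTT mouse pheochromocytoma cells that had been cultured overnight at 37°C, 5% CO2 in white 1536-well plates. Cell viability was measured by CellTiter-Glo ATP luminescence, read after 15 minutes, with positive-control wells set at 100% and DMSO wells at 0%. A four-parameter logistic fit of the normalised signals yielded the IC50.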

SMILES	IC50 of cell viability [µM]
C/C(=C(/CCO)SS/C(CCO)=C(\C)N(C=O)Cc1cnc(C)nc1N)N(C=O)Cc1cnc(C)nc1N [THIAMINE DISULFIDE]	> 46
C[N+]1([O-])[C@@H]2CC(OC(=O)[C@@H](CO)c3ccccc3)C[C@H]1[C@H]1O[C@H]12 (stereo partly drawn) [Scopolamin-N-oxide hydrobromide]	> 46
CC(Cc1ccccc1)NC=O (stereo not drawn) [Formetorex]	> 46
NC[C@@H]1O[C@H](OC2[C@@H](CO)O[C@@H](OC3[C@H](O)[C@H](N)C[C@H](N)[C@H]3OC3O[C@H](CO)[C@@H](O)[C@H](O)[C@@H]3N)[C@H]2O)C(N)[C@H](O)[C@@H]1O (stereo partly drawn) [PAROMOMYCIN SULFATE]	> 46
CCCN(CCC)c1c([N+](=O)[O-])cc([S+](N)(=O)[O-])cc1[N+](=O)[O-] [Oryzalin]	> 46
CC(C)=CCOC1=C2OC(=O)\C=C/C2=CC3=C1OC=C3 [IMPERATORIN]	> 46
OCC(O)C(O)C(O)C(O)CO (stereo not drawn) [SORBITOL]	> 46
CN/C(=N/C#N)NCCSCc1csc(N=C(N)N)n1 [TIOTIDINE]	> 46
C1CCNCC1.Oc1ncnc2[nH]cc(CN3CCCCC3)c12	> 46
OCCOCCOCCO [TRIETHYLENE GLYCOL]	> 46
CC(=O)Oc1c(C)c(C)c2c(c1C)CC[C@@](C)(CCC[C@H](C)CCC[C@H](C)CCCC(C)C)O2 [Vitamin E acetate]	> 46
CCN[C@@]1(c2cccs2)CCCCC1=O [Tiletamine hydrochloride]	> 46
CC(Cc1ccccc1)NCc1ccccc1Cl (stereo not drawn) [CLOBENZOREX]	> 46
CCC1(c2ccccc2)C(=O)NC(=O)N(C(=O)c2ccccc2)C1=O (stereo not drawn) [Benzobarbital]	> 46
C=C1[C@@H]2CC[C@H](C2)C1(C)C [CAMPHENE]	> 46
Cc1c(O)cc2c(c1C)O[C@](C)(CCC[C@H](C)CCC[C@H](C)CCCC(C)C)CC2	> 46
C[C@]12CC[C@H]3[C@@H](CC[C@@]45O[C@@H]4C(=O)C(C#N)C[C@]35C)[C@@H]1CC[C@@H]2O (stereo partly drawn) [TRILOSTANE]	> 46
OCC1OC(O)C(O)C(O)C1O (stereo not drawn) [Galactose]	> 46
CCCC(C)(COC(N)=O)COC(N)=O [Meprobamate]	> 46
CCCCC/1=N/C2(CCCC2)C(=O)N1CC3=CC=C(C=C3)C4=CC=CC=C4C5=NN=N[NH]5 [IRBESARTAN]	> 46
Oc1c(Br)cc(Br)cc1Br [2,4,6-Tribromophenol]	> 46
CCNCC.O=[S+]([O-])(O)c1cc(O)ccc1O [Ethamsylate]	> 46
O=C1CCc2cc(OCCCCc3nnnn3C3CCCCC3)ccc2N1 [CILOSTAZOL]	> 46
OC[C@@H](O)[C@@H](O)[C@H](O)[C@H](O)CO [D-Mannitol]	> 46

SMILES	IC50 of cell viability [µM]
CCN1C(=O)N[C@@H](c2ccccc2)C1=O [Ethotoin]	> 46
[Na+].CO[C@@]1(NC(=O)CSCC#N)[C@@H]2SC\C(=C(/N2C1=O)C([O-])=O)CSC3=NN=N[N]3C [Cefmetazole sodium salt]	> 46
CNNCc1ccc(C(=O)NC(C)C)cc1 [Procarbazine hydrochloride]	> 46
CCCCCCCCC(=O)NCc1ccc(O)c(OC)c1 [Nonanamide, N-[(4-hydroxy-3-methoxyphenyl)methyl]-]	> 46
CCCCCCCCCCCCCCCC(=O)OCC(NC(=O)C(Cl)Cl)C(O)c1ccc([N+](=O)[O-])cc1 (stereo not drawn) [Chloramphenicol palmitate]	> 46
Cc1cccc(C)c1NC(=O)[C@H](C)N [Tocainide hydrochloride]	> 46
CN/C(=C\[N+](=O)[O-])NCCSCc1csc(CN(C)C)n1 [Nizatidine]	> 46
C[C@@H](Cc1ccccc1)NCCC(c1ccccc1)c1ccccc1.C[C@H](O)C(=O)O [Prenylamine lactate]	> 46
C1CN(P2(N3CC3)=NP(N3CC3)(N3CC3)=NP(N3CC3)(N3CC3)=N2)CCO1 (stereo not drawn) [Fotretamine]	> 46
N=C1NC(=N)c2cc3ccccc3cc21 [1,3-Diiminobenz[f]isoindoline]	> 46
CCN(C)C(=O)Oc1cccc([C@H](C)N(C)C)c1 [RIVASTIGMINE TARTRATE]	> 46
C[N@@+]12CCC(CC1)[C@@H](C2)OC(=O)C(O)(C3=CC=CC=C3)C4=CC=CC=C4 [Clidinium bromide]	> 46
C=Cc1ccc(S(=O)(=O)[O-])cc1	> 46
O[C@H]1[C@H]2[C@H](O)CCCN2C[C@H]1O [TRIDOLGOSIRUM]	> 46
Clc1ccc([C@H]2CC3CCC2N3)cn1 (stereo partly drawn) [(?)-Epibatidine]	> 46
CCC(C)(C)C(=O)O[C@@H]1C[C@H](C)\C=C2\C=C/[C@H](C)[C@@H](CC[C@H]3C[C@@H](O)CC(=O)O3)[C@@H]12 [Simvastatin]	> 46
O=C(NCCO[N+](=O)[O-])c1cccnc1 [Nicorandil]	> 46
CCCCOc1cc(C(=O)NCCN(CC)CC)c2ccccc2n1 [Dibucaine]	> 46
O=C(O)/C=C\C(=O)O.O=C(O)/C=C\C(=O)O.c1cc(CN2CCCCC2)cc(OCCCNc2nc3ccccc3s2)c1	> 46
CCC(C)[C@@H](N)C(=O)O (stereo partly drawn) [ISOLEUCINE]	> 46
Clc1ccc(Cn2c(CN3CCCC3)nc3ccccc32)cc1 [Clemizole hydrochloride]	> 46
CCC1(CC)C(=O)NC(=O)N(C)C1=O [METHARBITAL]	> 46
C[Se]CC[C@H](N)C(=O)O [SELENOMETHIONINE, L-]	> 46

Second part, the molecule after the results:

IC50 of cell viability [µM]	SMILES
> 46	CCCCc1cc2c(=O)c(C(=O)OC)c[nH]c2cc1OCc1ccccc1 [NEQUINATE]
> 46	NCCCC[C@H](N[C@@H](CCc1ccccc1)C(=O)O)C(=O)N1CCC[C@@H]1C(=O)O.O.O [Lisinopril]
> 46	Nc1ccc([S+](=O)([O-])Nc2ccnn2-c2ccccc2)cc1 [Sulfaphenazole]
> 46	CC=1C2=CC3=N/C(=C/C4=C(C(=C(N4)/C=C/5\N=C(/C=C(/C1CCC(=O)O)\N2)C(=C5C)CCC(=O)OC)C=C)C)/C6=CC=C([C@H]([C@]36C)C(=O)OC)C(=O)OC.CC1=C2/C=C/3\N=C(/C=C/4\C(=C(/C(/N4)=C/C5=N/C(=C\C(=C1CCC(=O)OC)N2)/C(=C5C)CCC(=O)O)C=C)C)C6=CC=C([C@H]([C@]36C)C(=O)OC)C(=O)OC [Verteporfin]
> 46	Cc1ccc(/C(=C\CN2CCCC2)c2cccc(/C=C/C(=O)O)n2)cc1 [Acrivastine]
> 46	COC1=C(OC)C=C(CNCC(O)COC2=CC=C3NC(=O)\C=C/C3=C2)C=C1 (stereo not drawn) [TOBORINONE]
> 46	COc1ccc2cc(CCC(C)=O)ccc2c1 [Nabumetone]
> 46	CCN(CC)Cc1cc(Nc2ccnc3cc(Cl)ccc23)ccc1O.Cl.Cl.O.O [Amodiaquin dihydrochloride dihydrate]
> 46	CC[C@H]1OC(=O)[C@H](C)[C@@H](OC2CC(C)(OC)C(O)C(C)O2)[C@H](C)[C@@H](OC2OC(C)CC(N(C)C)C2O)[C@](C)(O)C[C@@H](C)/C(=N\OCOCCOC)[C@H](C)[C@@H](O)[C@]1(C)O (stereo partly drawn) [Roxithromycin]
> 46	N[S+](=O)([O-])c1cc2c(cc1Cl)N[C@@H](C(Cl)Cl)N[S+]2(=O)[O-] [Trichlormethiazide]
> 46	Cc1scc2c1N(C(=O)CN1CCN(C)CC1)c1ccccc1NC2=O [TELENZEPINE]
> 46	COc1ccc(/C=C/C(=O)Nc2ccccc2C(=O)O)cc1OC [Tranilast]
> 46	CN(C)[C@H]\1[C@@H]2[C@@H](O)[C@@H]\3C(=C)C4=C(Cl)C=CC(=C4C(=O)C3=C(\O)[C@@]2(O)C(=O)\C(=C1O)C(N)=O)O.OC(=O)C5=C(O)C=CC(=C5)[S+](O)([O-])=O [Meclocycline sulfosalicylate]
> 46	C[C@]12C=CC(=O)N[C@@H]1CC[C@@H]1C2CC[C@]2(C)C(C(=O)Nc3cc(C(F)(F)F)ccc3C(F)(F)F)CC[C@@H]12 (stereo partly drawn) [Dutasteride]
> 46	O=C([O-])C1=NN(c2ccc(S(=O)(=O)[O-])cc2)C(=O)/C1=N\Nc1ccc(S(=O)(=O)[O-])cc1 [Tartrazine]
> 46	C=C1N[C@]2(C(=O)COC(C)=O)[C@@H](C[C@H]3[C@@H]4CCC5=CC(=O)C=C[C@]5(C)[C@H]4[C@@H](O)C[C@@]32C)O1 [DEFLAZACORT]
> 46	CC(C)(Oc1ccc(C2CCCc3ccccc32)cc1)C(=O)O (stereo not drawn) [Nafenopin]
> 46	CCOc1cc(N)c(Cl)cc1C(=O)NCC1CN(Cc2ccc(F)cc2)CCO1 (stereo not drawn) [MOSAPRIDE CITRATE]
> 46	CCC(C)N1\N=C/N(C1=O)C2=CC=C(C=C2)N3CCN(CC3)C4=CC=C(OCC5COC(C[N]6C=NC=N6)(O5)C7=CC=C(Cl)C=C7Cl)C=C4 (stereo not drawn) [itraconazole]
> 46	O.Cl.COC1=C2N(\C=C(C(O)=O)/C(=O)C2=CC(=C1N3C[C@@H]4CCCN[C@@H]4C3)F)C5CC5 [Moxifloxacin Hydrochloride Monohydrate]
> 46	O=C(O)c1ccc([S+](=O)([O-])N(Cl)Cl)cc1 [HALAZONE]
